Experimental data as given in patent US12084445B2, “Broad-spectrum carbapenems” (VenatoRx Pharmaceuticals, Inc., priority 2018, dated 2024).
Like-named read-outs stand apart in the source and are kept apart here.

Experiments:
Format in all cases: cell-based
[1] = system: S. aureus ATCC 33591 (methicillin-resistant); experiment: broth microdilution MIC assay, S. aureus ATCC 33591; settings: Staphylococcus aureus
Experimental: (§1) To determine the ability of test compounds to potentiate the inhibition of the growth of bacterial strains, classic cell-based broth microdilution MIC assays were employed. MIC assays are performed according to CLSI methods except where otherwise noted (CLSI, 2011 and CLSI, 2009). The reference strains S. aureus ATCC 29213 (methicillin sensitive), S. aureus ATCC 33591 (methicillin-resistant), E. coli ATCC 25922 (wild-type/QC strain), P. aeruginosa ATCC 27853 (wild-type/QC strain), and the clinical isolate P. aeruginosa PA 8 were used to determine the ability of the exemplary carbapenem compounds to inhibit bacterial growth. An expanded panel of methicillin resistance S. aureus (MRSA) and Pseudomonas was also used to determine the ability of exemplary carbapenem compounds to inhibit bacterial growth across a broader representation of those species. To determine activity in MRSA and in addition to S. aureus ATCC 33591, S. aureus USA 300, USA 400 and USA 600, some of the most common clones found to cause human infection, were also used. To further gauge the impact on the carbapenem compounds due to various resistance mechanisms in Pseudomonas, the following strains were included: P. aeruginosa 35151 (hyper-permeable strain), P. aeruginosa AmexAB-OprM (an efflux pump knockout), and P. aeruginosa PA 3 (a clinical isolate of reduced carbapenem susceptibility). Briefly, cryo-preserved bacterial cultures of clinical strains are streaked for isolation on appropriate agar medium, in this case Mueller Hinton II agar. Following incubation to allow formation of colonies, these plates are sealed with parafilm and stored refrigerated for up to two weeks. For preparation of assay inocula and to ensure low variability, at least 5 colonies are picked from the agar plates with an inoculating loop and aseptically transferred to a culture tube containing 3 mL of Mueller-Hinton Broth (supplemented with divalent cations to required levels based on Manufacturers' specification). The broth culture is grown for 3-5 hours at 37° C. with shaking at 200 rpm. Meanwhile, 2-fold serial dilutions of test compounds are conducted in a 96 well plate with a final volume of 75 μL per well at 2-fold the final desired concentration. After the dilution plates are set up the growing cultures are then diluted in a cuvette containing MH II broth and the optical density is measured at 600 nm. Inocula are diluted such that 75 μL of this culture in Mueller-Hinton Broth results in a starting bacterial concentration of 5×10^5 CFU/mL when added to the dilution plates. The plates are incubated 16-20 hours at 37° C. The MIC is read visually as the lowest concentration well with no bacterial growth.
(§2) Representative results are shown in Tables 3, 4, and 5 where A represents an MIC>32 μg/mL, B represents an MIC between 8 and 32 μg/mL inclusive, C represents an MIC between 1 and 4 μg/mL inclusive, and D represents an MIC of <1 μg/mL. NT=Not Tested.

S. aureus USA 300 = experiment: broth microdilution MIC assay, S. aureus USA 300; settings: Staphylococcus aureus
Experimental: as §1, §2

[2] = system: E. coli ATCC 25922 (wild-type/QC strain); experiment: broth microdilution MIC assay, E. coli ATCC 25922; settings: Escherichia coli
Experimental: as §1, §2

[3] = system: P. aeruginosa 35151 (hyper-permeable strain); experiment: broth microdilution MIC assay, P. aeruginosa 35151; settings: Pseudomonas aeruginosa, read-out: P. aeruginosa 35151 MIC
Experimental: as §1, §2

S. aureus USA600 = experiment: broth microdilution MIC assay, S. aureus USA 600; settings: Staphylococcus aureus
Experimental: as §1, §2

[4] = system: P. aeruginosa ATCC 27853 (wild-type/QC strain); experiment: broth microdilution MIC assay, P. aeruginosa ATCC 27853; settings: Pseudomonas aeruginosa
Experimental: as §1, §2

[5] = system: P. aeruginosa ΔmexAB-OprM (an efflux pump knockout); experiment: broth microdilution MIC assay, P. aeruginosa ΔmexAB-OprM; settings: Pseudomonas aeruginosa, 20 h, read-out: P. aeruginosa ΔmexAB-OprM MIC
Experimental: as §1, §2

[6] = system: clinical isolate P. aeruginosa PA 8; experiment: broth microdilution MIC assay, P. aeruginosa PA 8; settings: Pseudomonas aeruginosa; Table 3; P. aeruginosa PA8
Experimental: as §1, §2

[7] = ATCC33591, Table 4, S. aureus 33591, read-out: S. aureus 33591 MIC
[8] = Table 4, S. aureus USA300, read-out: S. aureus USA300 MIC
[9] = ATCC25922, Table 4, E. coli 25922, read-out: E. coli 25922 MIC
[10] = Table 4, S. aureus USA600, read-out: S. aureus USA600 MIC
[11] = ATCC27853, Table 5, P. aeruginosa 27853, read-out: P. aeruginosa 27853 MIC
[12] = ATCC 33591 / MRSA, Table 3, S. aureus 33591 (MRSA), read-out: S. aureus 33591 (MRSA) MIC
[13] = ATCC25922, Table 3, E. coli 25922, read-out: E. coli 25922 MIC
[14] = ATCC27853, Table 3, P. aeruginosa 27853, read-out: P. aeruginosa 27853 MIC

| MIC [6] | MIC [1, 12] | MIC [2, 13] | MIC [4, 14] | Structure (SMILES) | MIC [1, 7] | MIC (S. aureus USA 300; [8]) | MIC [2, 9] | MIC [3] | MIC (S. aureus USA600; [10]) | MIC [4, 11] | MIC [5] | MIC ([1]; ATCC33591, read-out: S. aureus 33591 MIC) | MIC (S. aureus USA 300; USA300, read-out: S. aureus USA300 MIC) | MIC ([2]; ATCC25922, read-out: E. coli 25922 MIC) | MIC (S. aureus USA600; USA600, read-out: S. aureus USA600 MIC) | MIC ([4]; ATCC27853, read-out: P. aeruginosa 27853 MIC) |
| --- | --- | --- | --- | --- | --- | --- | --- | --- | --- | --- | --- | --- | --- | --- | --- | --- |
|  |  |  |  | C[C@@H](O)[C@H]1C(=O)N2C(C(=O)O)=C(SC3CN(CCC4CCN(C(=N)N)CC4)C3)[C@H](C)[C@H]12 [Example 71, (4R,5S,6S)-3-((1-(2-(1-carbamimidoylpiperidin-4-yl)ethyl)azetidin-3-yl)thio)-6-((R)-1-hydroxyethyl)-4-methyl-7-oxo-1-azabicyclo[3.2.0]hept-2-ene-2-carboxylic acid] | 1 to 4 µg/mL | 1 to 4 µg/mL | < 1 µg/mL | < 1 µg/mL | < 1 µg/mL | 1 to 4 µg/mL | 1 to 4 µg/mL |  |  |  |  |  |
|  |  |  |  | C[C@@H](O)[C@H]1C(=O)N2C(C(=O)O)=C(S[C@@H]3CCN(C[C@H]4CCN(C(=N)N)C4)C3)[C@H](C)[C@H]12 [Example 52, (4R,5S,6S)-3-(((R)-1-(((R)-1-carbamimidoylpyrrolidin-3-yl)methyl)pyrrolidin-3-yl)thio)-6-((R)-1-hydroxyethyl)-4-methyl-7-oxo-1-azabicyclo[3.2.0]hept-2-ene-2-carboxylic acid] | 1 to 4 µg/mL | < 1 µg/mL | < 1 µg/mL | < 1 µg/mL | < 1 µg/mL | 1 to 4 µg/mL | < 1 µg/mL |  |  |  |  |  |
|  |  |  |  | C[C@@H](O)[C@H]1C(=O)N2C(C(=O)O)=C(SC3CN(C[C@H]4CNCCO4)C3)[C@H](C)[C@H]12 [Example 60, (4R,5S,6S)-6-((R)-1-hydroxyethyl)-4-methyl-3-((1-(((R)-morpholin-2-yl)methyl)azetidin-3-yl)thio)-7-oxo-1-azabicyclo[3.2.0]hept-2-ene-2-carboxylic acid] | 8 to 32 µg/mL | 1 to 4 µg/mL | < 1 µg/mL | < 1 µg/mL | 1 to 4 µg/mL | 8 to 32 µg/mL | 1 to 4 µg/mL |  |  |  |  |  |
|  |  |  |  | C[C@@H](O)[C@H]1C(=O)N2C(C(=O)O)=C(SC3CN(C4CCNCC4)C3)[C@H](C)[C@H]12 [Example 55, (4R,5S,6S)-6-((R)-1-hydroxyethyl)-4-methyl-7-oxo-3-((1-(piperidin-4-yl)azetidin-3-yl)thio)-1-azabicyclo[3.2.0]hept-2-ene-2-carboxylic acid] | 1 to 4 µg/mL | 1 to 4 µg/mL | < 1 µg/mL | < 1 µg/mL | < 1 µg/mL | 1 to 4 µg/mL | 1 to 4 µg/mL |  |  |  |  |  |
|  |  |  |  | C[C@@H](O)[C@H]1C(=O)N2C(C(=O)O)=C(SC3CN(C[C@H]4CCNC4)C3)[C@H](C)[C@H]12 [Example 59, (4R,5S,6S)-6-((R)-1-hydroxyethyl)-4-methyl-7-oxo-3-((1-(((S)-pyrrolidin-3-yl)methyl)azetidin-3-yl)thio)-1-azabicyclo[3.2.0]hept-2-ene-2-carboxylic acid] | 1 to 4 µg/mL | 1 to 4 µg/mL | < 1 µg/mL | < 1 µg/mL | 1 to 4 µg/mL | 1 to 4 µg/mL | 1 to 4 µg/mL |  |  |  |  |  |
|  |  |  |  | C[C@@H](O)[C@H]1C(=O)N2C(C(=O)O)=C(SC3CN(C[C@@H]4CNCCO4)C3)[C@H](C)[C@H]12 [Example 61, (4R,5S,6S)-6-((R)-1-hydroxyethyl)-4-methyl-3-((1-(((S)-morpholin-2-yl)methyl)azetidin-3-yl)thio)-7-oxo-1-azabicyclo[3.2.0]hept-2-ene-2-carboxylic acid] | 8 to 32 µg/mL | 1 to 4 µg/mL | < 1 µg/mL | < 1 µg/mL | 1 to 4 µg/mL | 1 to 4 µg/mL | 1 to 4 µg/mL |  |  |  |  |  |
|  |  |  |  | CNCC(=O)N1CCC(CN2CC[C@@H](SC3=C(C(=O)O)N4C(=O)[C@H]([C@@H](C)O)[C@H]4[C@H]3C)C2)CC1 [Example 48, (4R,5S,6S)-6-((R)-1-hydroxyethyl)-4-methyl-3-(((R)-1-((1-(methylglycyl)piperidin-4-yl)methyl)pyrrolidin-3-yl)thio)-7-oxo-1-azabicyclo[3.2.0]hept-2-ene-2-carboxylic acid] | 8 to 32 µg/mL | 1 to 4 µg/mL | < 1 µg/mL | < 1 µg/mL | 1 to 4 µg/mL | 1 to 4 µg/mL | 1 to 4 µg/mL |  |  |  |  |  |
|  |  |  |  | C[C@@H](O)[C@H]1C(=O)N2C(C(=O)O)=C(S[C@@H]3CCN(CC4CCNCC4(F)F)C3)[C@H](C)[C@H]12 (stereo partly drawn) [Example 46, (4R,5S,6S)-3-(((3R)-1-((3,3-difluoropiperidin-4-yl)methyl)pyrrolidin-3-yl)thio)-6-((R)-1-hydroxyethyl)-4-methyl-7-oxo-1-azabicyclo[3.2.0]hept-2-ene-2-carboxylic acid] | 8 to 32 µg/mL | 1 to 4 µg/mL | < 1 µg/mL | < 1 µg/mL | 1 to 4 µg/mL | 8 to 32 µg/mL | 1 to 4 µg/mL |  |  |  |  |  |
|  |  |  |  | C[C@@H](O)[C@H]1C(=O)N2C(C(=O)O)=C(S[C@@H]3CCN(CC4CCNCC4F)C3)[C@H](C)[C@H]12 (stereo partly drawn) [Example 45, (4R,5S,6S)-3-(((3R)-1-((3-fluoropiperidin-4-yl)methyl)pyrrolidin-3-yl)thio)-6-((R)-1-hydroxyethyl)-4-methyl-7-oxo-1-azabicyclo[3.2.0]hept-2-ene-2-carboxylic acid] |  |  |  | < 1 µg/mL |  |  | 1 to 4 µg/mL | 1 to 4 µg/mL | 1 to 4 µg/mL | < 1 µg/mL | 1 to 4 µg/mL | 1 to 4 µg/mL |
|  |  |  |  | C[C@@H](O)[C@H]1C(=O)N2C(C(=O)O)=C(S[C@@H]3CCN(CC4CCN(C(=O)CN)CC4)C3)[C@H](C)[C@H]12 [Example 47, (4R,5S,6S)-3-(((R)-1-((1-glycylpiperidin-4-yl)methyl)pyrrolidin-3-yl)thio)-6-((R)-1-hydroxyethyl)-4-methyl-7-oxo-1-azabicyclo[3.2.0]hept-2-ene-2-carboxylic acid] | 8 to 32 µg/mL | 1 to 4 µg/mL | < 1 µg/mL | < 1 µg/mL | 1 to 4 µg/mL | 1 to 4 µg/mL | 1 to 4 µg/mL |  |  |  |  |  |
| 1 to 4 µg/mL | 8 to 32 µg/mL | < 1 µg/mL | 8 to 32 µg/mL | CNCc1ccc(CN2CC[C@@H](SC3=C(C(=O)O)N4C(=O)[C@H]([C@@H](C)O)[C@H]4[C@H]3C)C2)cn1 [Example 29, (4R,5S,6S)-6-((R)-1-hydroxyethyl)-4-methyl-3-(((R)-1-((6-((methylamino)methyl)pyridin-3-yl)methyl)pyrrolidin-3-yl)thio)-7-oxo-1-azabicyclo[3.2.0]hept-2-ene-2-carboxylic acid] |  |  |  |  |  |  |  |  |  |  |  |  |
| 8 to 32 µg/mL | 1 to 4 µg/mL | < 1 µg/mL | 8 to 32 µg/mL | C[C@@H](O)[C@H]1C(=O)N2C(C(=O)O)=C(S[C@@H]3CCN(Cc4ccc(C(N)CN)cc4)C3)[C@H](C)[C@H]12 (stereo partly drawn) [Example 34, (4R,5S,6S)-3-(((3R)-1-(4-(1,2-diaminoethyl)benzyl)pyrrolidin-3-yl)thio)-6-((R)-1-hydroxyethyl)-4-methyl-7-oxo-1-azabicyclo[3.2.0]hept-2-ene-2-carboxylic acid] |  |  |  |  |  |  |  |  |  |  |  |  |
